Source: the METLIN SMRT retention time set (Domingo-Almenara et al. 2019)

Experiment: gradient 5% acetonitrile 3 min, to 50% in 2 min, to 85% in 15 min, held 3 min, 100 µL/min
Details: column: Zorbax Extend-C18 2.1 x 50 mm; eluents: water / acetonitrile, 0.1% formic acid
Method in brief: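 Standards, all pure, were combined into mixtures of ~100 molecules and run at 100 μL/min on a Zorbax Extend-C18 column (2.1 × 50 mm, 1.8 μm) with water and acetonitrile, each containing 0.1% formic acid. A coupled quadrupole time-of-flight mass spectrometer operated in positive and negative ionization mode. Retention time values come from computationally picked adduct peaks, each inspected manually.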

Structure (SMILES)	RP-LC retention time
COCCNc1c(-c2ccccc2)nc2sc(C(=O)N(C)C)c(C)n12	643 s
CCN(CC)CCNC(=O)c1cc(S(=O)(=O)N2CCCCCC2)ccc1Cl	656 s
CCOC(=O)c1c(NC(=O)c2ccc(S(=O)(=O)N(C)C)cc2)sc(C)c1C	1170 s
Cc1nc2cc(-c3noc(-c4ccc(F)c(F)c4)n3)ccc2o1	1100 s
CC(=O)N(C1CC1)C1CCOC2(CCN(C(=O)Cc3c(C)noc3C)CC2)C1 (stereo not given)	659 s
CN1c2cc(C(=O)NC3CCN(Cc4ccccc4)CC3)ccc2C(=O)N2CCCCC21 (stereo not given)	586 s
COc1ccc2c(c1)C1(CCN(C(=O)Nc3ccccc3)C1)C(=O)N2 (stereo not given)	694 s
Cc1cc(C)n2c(Nc3ccccc3)c(-c3ccc(Br)cc3O)nc2n1	1120 s
COc1ccc2c(CCNC(=O)c3ccc4c(c3)OCCO4)c[nH]c2c1	684 s
Cc1ccc(CNC(=O)c2ccc3ccnc(N4CCN(c5ccccc5)CC4)c3c2)o1	819 s
O=C(Nc1ncc(S(=O)(=O)c2ccc([N+](=O)[O-])cc2)s1)c1ccccc1F	866 s
COC(=O)c1ccc2c(=O)n(-c3ccc(C)cc3)c(N3CCCCCC3)nc2c1	1340 s
CCc1nc2cc3c(cc2n1CC(=O)Nc1ccc2c(c1)OCCO2)OCCO3	618 s
CC1CCC(NS(=O)(=O)c2ccc3c(c2)c(=O)n(CC(=O)N2CCCC2)c(=O)n3C)CC1 (stereo not given)	834 s
Cc1ccc(C2CCCN2C(=O)Nc2ccc3c(c2)OCCO3)cc1 (stereo not given)	922 s
Cn1cc(CCN2CCC(C(=O)NCc3ccccc3F)CC2)c2cccnc21	595 s
O=C(CSc1ccc(N2CCCC(C(=O)NC3CC3)C2)nn1)Nc1ccccc1F (stereo not given)	643 s
Cc1cc(CC(=O)N2CC(F)(F)C[C@H]2c2nc(C)no2)on1	732 s
COc1ccc(CNc2nc3ccncc3n(C(C)C)c2=O)c(OC)c1	681 s
CCN(CC)CCNC(=O)C1c2ccccc2C(=O)N(C)C1c1cccs1 (stereo not given)	611 s
Cc1nn(C(C)C(=O)NCCCN2CCc3ccccc3C2)c(=O)c2nn(-c3ccccc3)c(C)c12 (stereo not given)	667 s
Cc1ccc(C)c(-c2coc(-c3ccc(NC(=O)c4sccc4C)cc3)n2)c1	1330 s
Cc1ccc(CNC(=O)c2cc(C)n3nc(-c4ccccn4)cc3n2)cc1	924 s

Structure (SMILES)	RP-LC retention time
CCOc1cccc(CNC(=O)c2cnc(-c3ccccc3)nc2-c2ccncc2)c1	855 s
CCCC(=O)Nc1ccc2c(c1)CN(C(=O)c1ccccc1)C(C(=O)N(C)C)C2 (stereo not given)	671 s
COc1ccc(C(CC(=O)N2CCCCCC2)N2Cc3ccccc3C2=O)cc1OC (stereo not given)	785 s
CC1CCN(C(=O)C2=CN(c3ccc(F)cc3)c3ccccc3S2(=O)=O)CC1	907 s
Cc1nn(C)c(=O)c2cc(S(=O)(=O)NCCC3=CCCCC3)cn12	966 s
O=C(Nc1ccc2c(c1)CN(C(=O)c1ccccc1)CC2)c1ccc(Br)o1	819 s
COc1cccc(NC(=O)NCC(c2cccnc2)c2c[nH]c3ccccc23)c1 (stereo not given)	662 s
Cc1ccc(-c2cc(C(=O)NC3CC3)n(C)c2)cc1	915 s
CCn1cc(S(=O)(=O)Nc2ccc3nc(S(=O)(=O)CC)sc3c2)cn1	693 s
CC(=O)N1CCC(C(=O)NC2CCCN(c3cc(-c4ccc(Cl)cc4)[nH]n3)C2)CC1 (stereo not given)	655 s
COCCN1C(=O)CCc2cc(NS(=O)(=O)c3cccs3)ccc21	706 s
CC(C)NC(=O)CSc1ccc(N2CCN(c3ccccc3)CC2)nn1	708 s
CCOC(=O)c1cnc2c(-c3cccc(Cl)c3)c(COC)nn2c1N	1150 s
O=C(Cn1ncc2c(c1=O)N(CC1CC1)C(=O)CS2)NCc1ccccc1Cl	789 s
O=C(NCc1ccco1)c1csc(N2CCN(c3ccc(Cl)cc3)CC2)n1	1090 s
COC(=O)c1ccc(NC(=O)C(=O)NCC2CCN(C(=O)c3ccccc3F)CC2)cc1	751 s
Cc1nnc(-c2ccc3ccn(CC(=O)NCc4ccccc4Cl)c3c2)o1	779 s
CCn1ccc(C(=O)N2CCCC2c2ccc(F)cc2)n1 (stereo not given)	816 s
CCCNC(=O)N(C1CCOCC1)C1CCN(C(=O)Nc2cccc(C)c2C)CC1	732 s
CC(CNC(=O)c1cc2n(n1)CC(C)(C(=O)NC1CCCCC1)N(C)C2=O)c1ccccc1 (stereo not given)	795 s
c1ccc(COCCc2noc(C3CCCN3)n2)cc1 (stereo not given)	614 s
Nc1c(CC(=O)O)cccc1C(=O)c1ccc(Br)cc1	909 s
COc1cc(C2CC(=O)c3c([nH]c(C(=O)OCC4CCCCC4)c3C)C2)cc(OC)c1OC (stereo not given)	1180 s

Structure (SMILES)	RP-LC retention time
Cc1cccc(CN2CC=C(C(=O)N3CCN(c4ccccc4C)CC3)CC2)c1	726 s
Cc1ccc(S(=O)(=O)N2CCC(n3c(-c4ccco4)nc4cccnc43)C2)cc1 (stereo not given)	863 s
CCN1C(=O)CCC2(C(=O)NCCc3c[nH]c4ccccc34)CCCC=C12 (stereo not given)	743 s
Cc1cc(Nc2ncccc2S(N)(=O)=O)ccc1F	820 s
O=C(Nc1ccc2c(c1)OCCO2)N1CCC(N2CCN(Cc3ccc(F)cc3)C2=O)CC1	773 s
CCOc1ccccc1NC(=O)c1csc2c1CCC(C)C2 (stereo not given)	1320 s
O=S(=O)(Cc1ccccc1)N1CCCCC1c1nc(C2CC2)n[nH]1 (stereo not given)	758 s
CCCn1cc(-c2ccncc2)cc1C(=O)NC1CCCCC1	685 s
CCSc1nnc(-c2nn(C)c3c2CN(S(=O)(=O)c2ccc(Cl)cc2)CC3)n1CC	983 s
CC(C)N1CCC(CNC(=O)c2cccc3ccccc23)CC1	546 s
CCCC(NC(=O)c1ccc(F)c(F)c1)C(=O)Nc1nc2ccccc2[nH]1 (stereo not given)	712 s
COc1ccccc1N1CCN(S(=O)(=O)c2cc(-c3nnc(C4CCC4)o3)co2)CC1	1020 s
CCNC(=O)NCC1CCN(S(=O)(=O)C2CC2)CC1	579 s
CCCNC(=O)c1nnc(-c2ccc(S(=O)(=O)N3CCCC3)cc2)o1	824 s
O=C(CNC(=O)C1CCCCC1)Nc1nc2ccccc2[nH]1	619 s
CC(=O)OCCNc1nc(-c2ccccc2)nc2ccccc12	623 s
O=C(CN1C(=O)CCCc2cc(S(=O)(=O)N3CCCCC3)ccc21)NCc1ccccc1	847 s
CCc1ccc2c(c1)-c1ccccc1S(=O)(=O)N2CC(=O)NCc1ccccn1	720 s
O=C(NC1CCCCC1)N1CCC(c2noc(-c3ccncc3)n2)C1 (stereo not given)	727 s
O=C(Nc1ccccn1)C1CCN(S(=O)(=O)c2ccc(-c3noc(C4CC4)n3)cc2)CC1	843 s
O=C(N[C@@H]1CN(Cc2ccc(Cl)cc2F)CC[C@@H]1CO)C1CC1	598 s
O=S(=O)(NCCc1ccsc1)c1cccnc1	686 s
CN1C(=O)c2cc(C(=O)NC3CCCCC3)nn2CC1(C)C(=O)NCc1ccc(F)cc1 (stereo not given)	776 s

Structure (SMILES)	RP-LC retention time
COc1cccc(N2CCN(C(=O)C3CCN(c4nccnc4Sc4ccccc4)CC3)CC2)c1	1070 s
Cc1ncsc1CN1CCC2(CC1)c1[nH]c3ccccc3c1CCN2C	538 s
CCOc1ccc(N2C(=O)Nc3ccccc3C2(O)C(=O)NCCCN2CCCCC2)cc1 (stereo not given)	576 s
Cc1cc(C2CCCN2C(=O)Nc2ccc(C)c(C)c2)on1 (stereo not given)	728 s
O=C(CN1CCCCC1c1nc(-c2cccc(F)c2)no1)Nc1cccc(F)c1 (stereo not given)	967 s
CCc1nc2cc(-c3noc(COc4ccc(Cl)cc4)n3)ccc2o1	1170 s
Cc1ccc(C)c(NC(=O)CSc2nc(N3CCCCC3)nc3ccccc23)c1	804 s
COc1ccc(-n2c(=O)n(C)c(=O)c3cc(C(=O)NC(C)c4ccccc4)cnc32)cc1 (stereo not given)	871 s
O=C(O)COc1ccc(OCCNC[C@H](O)COc2ccccc2)cc1	679 s
COc1ccc(-c2nnc(-c3cc(S(=O)(=O)N4CCC(C(=O)O)CC4)ccc3Cl)o2)cc1	875 s
COc1cc(NC(=O)C2CCCN(c3nnc4ccccn34)C2)cc(OC)c1OC (stereo not given)	634 s
COc1ccc(N2CCN(c3nc(C(=O)N4CCN(C)CC4)cs3)CC2)cc1	614 s
COCCN1C(=O)c2cccn2CC1CNC(=O)c1sc(C)nc1C (stereo not given)	606 s
COC(=O)C1C(=O)C2=C(CC1C)NC(=O)CC2c1cccc(OC)c1 (stereo not given)	726 s
Cc1noc2ncnc(N3CCCC(C(=O)Nc4ccc(N5CCC(C)CC5)cc4)C3)c12 (stereo not given)	698 s
CCc1nc(-c2ccc3c(c2)CCN3C(=O)Cc2cc(OC)cc(OC)c2)no1	996 s
CC(=O)c1ccc(NC(=O)c2c[nH]c3ncccc23)cc1	652 s
Nc1nnc(SCc2nnc(-c3cccc(F)c3)o2)s1	646 s
CCC(=O)Nc1nc2cc(NC(=O)C3CCN(S(=O)(=O)N4CCOCC4)CC3)ccc2s1	719 s
CC(C)OC(=O)Cn1nc(-c2nc(-c3ccc(Cl)cc3)no2)ccc1=O	1080 s
Cc1ccc(CNC(=O)C2(C)CN(S(C)(=O)=O)CC(=O)N2c2ccc(C)c(C)c2)cc1 (stereo not given)	807 s
